Assay results: US7344884B2, “Peptides promoting cell adherence, growth and secretion” (Becton, Dickinson and Company, priority 2001, dated 2008)
Marks after values point to notes of the source that are not given here.

B1: Collagen-III: extracellular matrix (ECM) control from Becton Dickinson Labware (protein, UniProt P02461 154-1221, looked up)
Collagen alpha-1(III) chain: QYDSYDVKSGVAVGGLAGYPGPAGPPGPPGPPGTSGHPGSPGSPGYQGPPGEPGQAGPSGPPGPPGAIGPSGPAGKDGESGRPGRPGERGLPGPPGIKGPAGIPGFPGMKGHRGFDGRNGEKGETGAPGLKGENGLPGENGAPGPMGPRGAPGERGRPGLPGAAGARGNDGARGSDGQPGPPGPPGTAGFPGSPGAKGEVGPAGSPGSNGAPGQRGEPGPQGHAGAQGPPGPPGINGSPGGKGEMGPAGIPGAPGLMGARGPPGPAGANGAPGLRGGAGEPGKNGAKGEPGPRGERGEAGIPGVPGAKGEDGKDGSPGEPGANGLPGAAGERGAPGFRGPAGPNGIPGEKGPAGERGAPGPAGPRGAAGEPGRDGVPGGPGMRGMPGSPGGPGSDGKPGPPGSQGESGRPGPPGPSGPRGQPGVMGFPGPKGNDGAPGKNGERGGPGGPGPQGPPGKNGETGPQGPPGPTGPGGDKGDTGPPGPQGLQGLPGTGGPPGENGKPGEPGPKGDAGAPGAPGGKGDAGAPGERGPPGLAGAPGLRGGAGPPGPEGGKGAAGPPGPPGAAGTPGLQGMPGERGGLGSPGPKGDKGEPGGPGADGVPGKDGPRGPTGPIGPPGPAGQPGDKGEGGAPGLPGIAGPRGSPGERGETGPPGPAGFPGAPGQNGEPGGKGERGAPGEKGEGGPPGVAGPPGGSGPAGPPGPQGVKGERGSPGGPGAAGFPGARGLPGPPGSNGNPGPPGPSGSPGKDGPPGPAGNTGAPGSPGVSGPKGDAGQPGEKGSPGAQGPPGAPGPLGIAGITGARGLAGPPGMPGPRGSPGPQGVKGESGKPGANGLSGERGPPGPQGLPGLAGTAGEPGRDGNPGSDGLPGRDGSPGGKGDRGENGSPGAPGAPGHPGPPGPVGPAGKSGDRGESGPAGPAGAPGPAGSRGAPGPQGPRGDKGETGERGAAGIKGHRGFPGNPGAPGSPGPAGQQGAIGSPGPAGPRGPVGPSGPPGKDGTSGHPGPIGPPGPRGNRGERGSEGSPGHPGQPGPPGPPGAPGPCCGGVGAAAIAGIGGEKAGGFAPYYG

Tested on: MC3T3 cells
Test: Oxygen biosensor assay of adherence and growth of MC3T3 cells on peptide-coated wells
Type: cell-based, murine
Conditions: for Abs at 590 nm (relative oxygen consumption), MDL-400 Library / relative oxygen consumption (Absorbance at 590 nm) / Abs at 590 nm (relative oxygen consumption), Controls: 86 hour time point; for Abs at 590 nm (relative oxygen consumption), MDL-400 Library: single peptide, 50 µl of 1 mM stock dried in well, value normalized to the well's initial reading; for impact on MC3T3 growth (result in words): peptide or control adsorbed to surface, compared with uncoated surface or controls; for Abs at 590 nm (relative oxygen consumption), Controls: 25 µl stock of ECM or known peptide control dried in well, same plate
Description: To identify peptides in a particular library which positively affected cell growth in cell culture, the library was screened in a growth assay. The selected cells were anchorage-dependent MC3T3 cells, which were grown on tissue culture surfaces which had been pre-coated with peptides of the present invention. The screening medium used to evaluate peptides in the library was a low serum medium allowing evaluation of peptide effects with low interference from undefined materials present in the medium. In the present work, growth of MC3T3 cells was assessed in the presence and absence of the peptides in the library which were present in the form of a dried film on a tissue culture substrate. Growth was evaluated in a basal medium rich in amino acids and containing the necessary vitamins, metals and simple carbon source. After an appropriate incubation time, growth of each peptide-supplemented culture is compared to growth of the unsupplemented culture. The extent of growth was evaluated using a Becton Dickinson oxygen sensor to detect oxygen consumption by the cells. The cell number in each well containing a particular peptide was then assessed indirectly with a flurometer which measured fluorescence generated from a fluoroescent dye using band-pass filters of 465 nm for excitation and 590 nm for emission.
Briefly, the oxygen biosensor is based upon the fluoroscence of ruthenium dye which is quenched in the presence of oxygen. The dye is immobilized within an inert but highly permeable silicone matrix located at the bottom of microtiter wells. […] (Wodnicka, M., Guarino, R. D., Hemperly, J. J. Temmins, M. R., Stitt, D. and Pitner, J. B. (2000) J. of Biomolecular Screening 5:141-152)
MC3T3-E1 is a clonal line of murine calvaria-derived osteoblast (establishement of a clonal osteogenic Cell Line from Newborn Mouse Calvaria in Jpn J. Oral Biol 23, 899 (1981)).
MC3T3 cells were maintained in αMEM (GIBCO Catalog No: 12561) supplemented with 2% fetal calf serum (FCS, inactivated) and 100 units or μg/ml of penicillin/streptomycin for one month prior to use. Cells were routinely seeded at a density of approximately 1×10^4 cells per 20 ml culture media which was placed in a 250 ml canted neck polystyrene tissue culture treated flask (Becton Dickinson). Cells were cultured until approximately 2×10^6 cells were obtainable from each flask, which were resuspended in 5 ml of αMEM with 2% FCS for a final cell concentration of about 5×10^4 cells per 150 μl for peptide screening.
For determining the biological effects of library peptides and appropriate controls on MC3T3 cells, cells (5×10^4/150 μl) were grown in an 96 well oxygen sensor plate treated as described below:
Peptides for screening were obtained from either a MDL-400 library or an MDL-100 library. Fifty microliters of peptides at a 1 mM stock concentration in phosphate buffered saline were placed in wells of a 96 well oxygen sensor plate and dried in a reverse flow air hood overnight […].
Vitrogen-collagen-I was obtained from Cohesion (Palo Alto, Calif., Catalog No. FXP-019) and fibronectin was obtained from Sigma (Catalog No. F-0895). All other extracellular matrix (ECM) compounds were obtained from Becton Dickinson Labware, (Bedford, Mass.). Polylysine was obtained from Becton Dickinson Labware and RGDSP-rhodamine was from AnaSpec Inc. (San Jose, Calif.). Extracellular matrix components (ECM) or known peptides were used at the following stock concentrations:
Twenty-five microliters of stock concentrations of controls and 25 μl of phosphate buffered saline were placed in wells of a 96 well oxygen sensor plate and dried overnight as described above.
Cells grown on 96 well oxygen sensor plates treated as described above were monitored for growth using a Becton Dickinson oxygen biosensor. Growth was monitored at the following time points: 1 hours, 24 hours, 32 hours, 48 hours and 86 hours. Media was changed every three days. […]

Row | Molecule | Abs at 590 nm (relative oxygen consumption), MDL-400 Library | impact on MC3T3 growth (result in words) | Abs at 590 nm (relative oxygen consumption), Controls | also measured
1 | AFFKI (Synthetic peptide selected for biological activity) [SEQ ID NO:6] | 2.01* | significant difference in growth |  | 
2 | AFKIF (Synthetic peptide selected for biological activity) [SEQ ID NO:9] | 2.78* | significant difference in growth |  | relative oxygen consumption (Absorbance at 590 nm): 2.78
3 | AKIFF (Synthetic peptide selected for biological activity) [SEQ ID NO:8] | 2.08* | significant difference in growth |  | 
4 | Collagen-IV: extracellular matrix (ECM) control from Becton Dickinson Labware [reference compound] |  |  | 3.14 | relative oxygen consumption (Absorbance at 590 nm): 3.14
5 | Collagen-V: extracellular matrix (ECM) control from Becton Dickinson Labware [reference compound] |  |  | 1.76 | 
6 | FAKFI (Synthetic peptide selected for biological activity) [SEQ ID NO:11] | 2.06* | significant difference in growth |  | 
7 | FIFAK (Synthetic peptide selected for biological activity) [SEQ ID NO:3] | 2.08* | significant difference in growth |  | 
8 | FIKFG (Synthetic peptide selected for biological activity) [SEQ ID NO:2] | 2.38* | significant difference in growth |  | impact on MC3T3 growth (result in words) (listed as FIKFG): positive
9 | Fibronectin [reference compound] |  |  | 2.12 | 
10 | IFFKG (Synthetic peptide selected for biological activity) [SEQ ID NO:1] | 2.53* | significant difference in growth |  | relative oxygen consumption (Absorbance at 590 nm): 2.53; impact on MC3T3 growth (result in words) (listed as IFFKG): positive
11 | KFAFI (Synthetic peptide selected for biological activity) [SEQ ID NO:10] | 2.11* | significant difference in growth |  | 
12 | Laminin [reference compound] |  |  | 2.65 | relative oxygen consumption (Absorbance at 590 nm): 2.65
13 | Polylysine [reference compound] |  |  | 1.08 | 
14 | QVVAK (Synthetic peptide selected for biological activity) [SEQ ID NO:4] | 2.11* | significant difference in growth |  | 
15 | RGDSP-rhodamine [reference compound] |  |  | 1.25 | 
16 | VFPFK (Synthetic peptide selected for biological activity) [SEQ ID NO:7] | 2.06* | significant difference in growth |  | 
17 | B1 |  |  | 1.45 | 
